1 compound from US8802597B2, “Herbicidal pyrimidines” (E I du Pont de Nemours and Company, priority 2003, dated 2014) can be followed below.

Each structure is given as a SMILES string.

Holding throughout (assay): Test D pre/postemergence
What all share (format): in vivo
Holding throughout (settings): scale 0 to 100 (100 = complete control)

Experiment [1] concerns catchweed bedstraw (galium; Galium aparine). The text has this: (§1) Seeds of plant species selected from catchweed bedstraw (galium; Galium aparine), common chickweed (Stellaria media), kochia (Kochia scoparia), lambsquarters (Chenopodium album), pigweed (Amaranthus retroflexus), Russian thistle (Salsola kali), wild buckwheat (Polygonum convolvulus), wild mustard (Sinapis arvensis), winter barley (Hordeum vulgare), and wheat (Triticum aestivum) were planted and treated preemergence with test chemicals formulated in a non-phytotoxic solvent mixture which included a surfactant.
(§2) At the same time, plants selected from these crop and weed species were treated with postemergence applications of some of the test chemicals formulated in the same manner. Plants ranged in height from 2 to 18 cm (1- to 4-leaf stage) for postemergence treatments. Treated plants and controls were maintained in a controlled growth environment for 15 to 25 days after which time all species were compared to controls and visually evaluated. Plant response ratings, summarized in Table D, are based on a scale of 0 to 100 where 0 is no effect and 100 is complete control. A dash (-) response means no test result.

In experiment [2] the test system is Russian thistle (Salsola kali).
Text: as §1, §2

Experiment [3] relates to wild mustard (Sinapis arvensis).
Text: as §1, §2

Experiment [4] deals with common chickweed (Stellaria media).
Text: as §1, §2

As to `CCOC(=O)Cc1nc(C2CC2)nc(N=CN(C)C)c1Br` [Compound 33], the “Plant response rating, Galium” value in experiment [1] (Postemergence, 62 g ai/ha) stood at 55; in experiment [1] (Postemergence, 125 g ai/ha) it was 60; in experiment [1] (Postemergence, 250 g ai/ha) it was 65; in experiment [1] (Preemergence, 62 g ai/ha), 70; in experiment [1] (Preemergence, 125 g ai/ha) it was 80; in experiment [1] (Preemergence, 250 g ai/ha), 100. Moreover, the “Plant response rating, Russian Thistle” value in experiment [2] (Postemergence, 62 g ai/ha) is given as 30; in experiment [2] (Postemergence, 125 g ai/ha), 40; in experiment [2] (Postemergence, 250 g ai/ha) it was 40; in experiment [2] (Preemergence, 62 g ai/ha) it was 55; in experiment [2] (Preemergence, 125 g ai/ha), 60; in experiment [2] (Preemergence, 250 g ai/ha), 85. In addition, the “Plant response rating, Mustard, Wild” value in experiment [3] (Postemergence, 62 g ai/ha) stood at 50; in experiment [3] (Postemergence, 125 g ai/ha), 50; in experiment [3] (Postemergence, 250 g ai/ha), 50; in experiment [3] (Preemergence, 62 g ai/ha), 65; in experiment [3] (Preemergence, 125 g ai/ha) it was 65; in experiment [3] (Preemergence, 250 g ai/ha) it was 65. The “Plant response rating, Chickweed” value in experiment [4] (Postemergence, 62 g ai/ha) is recorded as 40; in experiment [4] (Postemergence, 125 g ai/ha), 50; in experiment [4] (Postemergence, 250 g ai/ha), 60; in experiment [4] (Preemergence, 250 g ai/ha), 65.
